Target: T1, p38 MAPK/MK2 (Homo sapiens, UniProt Q16539)
T1 construct: purchased Carna (p38α); Abcam (MK2) 04-152; 79910
Assay: In vitro activity assay of p38 MAPK/MK2 (Z-LYTE kinase assay kit)
Format: biochemical
Conditions: active p38α, inactive MK2, Ser/Thr 4; 1-hour reaction at 20° C.
Procedure: The inhibitory effect of the compound on p38 MAPK/MK2 was evaluated using the Z-LYTE kinase assay kit (Thermo, PV3177). The test compound was dissolved in DMSO to obtain a 10 mM stock solution and stored at −20° C. for future use. The initial concentration of the compound was […], with 1% DMSO, 5-fold serial dilution, 8 concentrations, and duplicate wells. […] After a 1-hour reaction at 20° C., Development Reagent A diluted 2048-fold was added to each well, followed by incubation at room temperature for 1 hour. The reaction was terminated by adding 5 μL of stop buffer, and the plate was read using a microplate reader (Ex. 400 nm, Em. 445 nm; Ex. 400 nm, Em. 520 nm). The concentration-effect curve was fitted using GraphPad Prism 8 software, and the compound concentration resulting in 50% inhibition, IC50, was calculated.

T1 sequence (Q16539 whole entry): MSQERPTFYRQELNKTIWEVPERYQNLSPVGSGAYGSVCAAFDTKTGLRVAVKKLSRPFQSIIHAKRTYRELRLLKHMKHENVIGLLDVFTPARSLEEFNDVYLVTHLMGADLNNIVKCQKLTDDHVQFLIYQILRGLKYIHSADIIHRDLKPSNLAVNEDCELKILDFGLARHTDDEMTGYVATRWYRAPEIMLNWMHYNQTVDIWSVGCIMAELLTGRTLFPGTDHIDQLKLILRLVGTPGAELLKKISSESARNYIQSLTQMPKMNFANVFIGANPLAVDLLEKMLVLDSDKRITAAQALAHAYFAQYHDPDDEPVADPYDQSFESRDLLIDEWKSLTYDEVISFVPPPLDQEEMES
T1 sequence (P49137 whole entry partner): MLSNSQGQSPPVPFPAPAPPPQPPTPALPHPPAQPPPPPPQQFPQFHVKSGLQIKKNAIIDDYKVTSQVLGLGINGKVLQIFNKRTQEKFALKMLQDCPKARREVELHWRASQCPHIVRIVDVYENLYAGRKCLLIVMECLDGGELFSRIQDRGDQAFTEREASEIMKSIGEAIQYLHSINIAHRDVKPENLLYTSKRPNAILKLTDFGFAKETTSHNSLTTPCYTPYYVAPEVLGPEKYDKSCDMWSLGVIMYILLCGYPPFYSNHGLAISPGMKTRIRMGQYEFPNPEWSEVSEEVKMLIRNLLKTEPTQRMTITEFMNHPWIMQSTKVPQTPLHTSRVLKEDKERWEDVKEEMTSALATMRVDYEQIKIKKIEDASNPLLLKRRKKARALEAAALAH

| IC50 [nM] | Compound |
| --- | --- |
| 1.03 | CNC(=O)c1cccc(-c2cc(-n3c(C)cc(OCc4ncc(F)cc4F)c(Cl)c3=O)c(C)cn2)c1F [Compound 20] |
| 11.7 | Cc1cnc(-c2cccc(C(C)(C)CO)c2F)cc1-n1c(C)cc(OCc2ncc(F)cc2F)c(Cl)c1=O [Compound 137] |
| 0.794 | Cc1cc(OCc2ncc(F)cc2F)c(Cl)c(=O)n1-c1ccnc(-c2cccc(C(C)(C)O)c2F)c1 [Compound 141] |
| 12.6 | Cc1cc(OCc2ncc(F)cc2F)c(Cl)c(=O)n1-c1ccnc(-c2ccc(F)c([C@@](C)(O)CO)c2F)c1 [Compound 144] |
| 7.94 | CC[C@](O)(CO)c1cccc(-c2cc(-n3c(C)cc(OCc4ncc(F)cc4F)c(Cl)c3=O)c(C)cn2)c1F [Compound 147] |
| 15.9 | COC[C@](C)(O)c1cccc(-c2cc(-n3c(C)cc(OCc4ncc(F)cc4F)c(Cl)c3=O)c(C)cn2)c1F [Compound 148-P1] |
| 8.59 | CNCC(C)(O)c1cccc(-c2cc(-n3c(C)cc(OCc4ncc(F)cc4F)c(Cl)c3=O)c(C)cn2)c1F (stereo not drawn) [Compound 150] |
| 1.56 | Cc1cnc(-c2cccc([C@@H](O)CO)c2F)cc1-n1c(C)cc(OCc2ncc(F)cc2F)c(Cl)c1=O [Compound 151-P1] |
| 20.6 | COc1cnc(-c2cccc([C@@](C)(O)CO)c2F)cc1-n1c(C)cc(OCc2ncc(F)cc2F)c(Cl)c1=O [Compound 154] |
| 3.49 | COc1cnc(-c2cccc(C(C)(C)O)c2F)cc1-n1c(C)cc(OCc2ncc(F)cc2F)c(Cl)c1=O [Compound 155] |
| 0.336 | Cc1cc(OCc2ncc(F)cc2F)c(Cl)c(=O)n1-c1ccnc(-c2cccc(C3(CO)CC3)c2F)c1 [Compound 156] |

Test system: not listed separately
Assay: In vitro liver microsome stability, mouse
Format: in vitro ADME
Conditions: liver microsomes, 0.5 mg/mL microsomes, 1 μM compound, NADPH, 37° C., read-out: Mouse liver microsomes Half-life T1/2
Procedure: (§1) The reference compound used in this experiment was Ketanserin, and the final concentration of microsomes in the experimental system was 0.5 mg/mL. The PBS buffer was a 50 mM K2HPO4 buffer. The concentration of the test compound was 1 μM. The microsomes were added to PBS, and the control/test compounds were respectively added to the corresponding reaction systems, mixed thoroughly, and pre-incubated in a 37° C. water bath for 5 minutes. The reaction was initiated by adding 20 mM NADPH solution under 37° C. water bath conditions (for the No NADPH samples, an equal volume of PBS solution was used as a substitute for the 20 mM NADPH solution). At the reaction time points of 0 min, 10 min, 30 mun, 60 min, and 90 min, 30 μL of reaction samples were taken from each reaction system (for the No NADPH samples, sampling was performed at 0 min and 90 min), and the reaction was immediately terminated by adding 300 μL of the internal standard acetonitrile solution. After centrifugation at 4000 rpm, the supernatant was taken and mixed thoroughly with an equal volume of pure water. The samples at each time point were analyzed by LC-MS/MS (AB Triple Quard 5500) to determine the compound content, and the T1/2 was calculated.

| half-life at 1 μM [h] | Compound |
| --- | --- |
| > 4.66 | Cc1cc(OCc2ncc(F)cc2F)c(Cl)c(=O)n1-c1ccnc(-c2cccc(C(C)(C)O)c2F)c1 [Compound 141] |

Test system: TNF-α in human PBMC cells
Assay: In vitro TNF-α activity assay in human PBMC cell supernatant (LPS, ELISA)
Format: cell-based
Conditions: Homo sapiens, PBMC, 24 h, LPS 100 ng/mL, read-out: p38 MAPK/TNF-α IC50
Procedure: The inhibitory effect of the compound on TNF-α in the supernatant of human PBMC cells was evaluated using an ELISA detection kit (Beyotime, PI518). The test compound was dissolved in DMSO to obtain a 10 mM stock solution and stored at −20° C. for future use. The initial concentration of the compound was […], followed by 5-fold serial dilution to obtain 6 concentrations. Cells were plated in duplicate, and ELISA was performed in single wells. The final concentration of DMSO was 0.4%. Alternatively, the initial concentration of the compound, dilution factor, number of concentration gradients, and replicates could be adjusted based on the specific screening conditions.
Fresh human peripheral blood mononuclear cells (PBMCs) (Sailybio) were seeded at a density of 2×10^5 cells per well in a 96-well plate (Corning, 3599), with each well containing 100 μL of RPMI-1640 (Gibco #A1049101)+10% FBS (Gibco, 10099141C), and incubated overnight at 37° C. under 5% CO2. Test compounds were added to the 96-well culture plate at a volume of 25 μL per well. After 1 hour, 5 μL of LPS was added to achieve a final concentration of 100 ng/mL. No LPS and compound were added to the negative control wells, and no compound was added to the positive control wells. The mixture was further incubated for 24 hours at 37° C. under 5% CO2. Subsequently, the cell culture supernatant was collected by centrifugation at 500 rcf for 8 minutes. The concentration of TNF-α was measured according to the operation manual of the ELISA kit. The concentration-effect curve was fitted using GraphPad Prism 8 software, and the compound concentration resulting in 50% inhibition, IC50, was calculated.

| Compound | IC50 [nM] |
| --- | --- |
| Cc1cnc(-c2cccc(C(C)(C)CO)c2F)cc1-n1c(C)cc(OCc2ncc(F)cc2F)c(Cl)c1=O [Compound 137] | 0.84 |
| Cc1cc(OCc2ncc(F)cc2F)c(Cl)c(=O)n1-c1ccnc(-c2cccc(C(C)(C)O)c2F)c1 [Compound 141] | 14.1 |
| Cc1cnc(-c2cccc([C@@H](O)CO)c2F)cc1-n1c(C)cc(OCc2ncc(F)cc2F)c(Cl)c1=O [Compound 151-P1] | 12.9 |
| Cc1cnc(-c2ccnc(C(C)(C)O)n2)cc1-n1c(C)cc(OCc2ncc(F)cc2F)c(Cl)c1=O [Compound C, reference compound] | 26.4 |

Same assay, conditions: LPS 100 ng/mL, 24 hours, read-out: p38 MAPK/TNF-α IC50

| Compound | IC50 [nM] |
| --- | --- |
| CNC(=O)c1cccc(-c2cc(-n3c(C)cc(OCc4ncc(F)cc4F)c(Cl)c3=O)c(C)cn2)c1F [Compound 20] | 8.68 |

Test system: not listed separately
Assay: In vitro liver microsome stability, rat
Format: in vitro ADME
Conditions: liver microsomes, 0.5 mg/mL microsomes, 1 μM compound, NADPH, 37° C., read-out: Rat liver microsomes Half-life T1/2
Procedure: as §1

| half-life at 1 μM [h] | Compound |
| --- | --- |
| 2.51 | Cc1cc(OCc2ncc(F)cc2F)c(Cl)c(=O)n1-c1ccnc(-c2cccc(C(C)(C)O)c2F)c1 [Compound 141] |
